Measured values: ChEMBL document CHEMBL1152168 (Bioorg Med Chem Lett, 2008)
≈ marks a conversion by molar mass, not a printed value.

Tests used:
[1] = Inhibition of MEK-mediated phosphorylation of myelin basic protein by kinase cascade assay
[2] = Inhibition of MEK-mediated ERK phosphorylation in PDGF-stimulated mouse K-Balb cells treated as single oral dose preincubated for 1 hr before PDGF challenge by whole cell assay
[3] = Inhibition of MEK-mediated ERK phosphorylation in PDGF-stimulated mouse K-Balb cells treated as single oral dose preincubated for 24 hrs before PDGF challenge by whole cell assay
[4] = Inhibition of MEK-stimulated ERK phosphorylation in PDGF-stimulated mouse C26 cells treated as single oral dose before PDGF challenge by whole cell assay; type: cell-based
[5] = Aqueous solubility in phosphate buffer at pH 6.5; type: physicochemical
[6] = Distribution coefficient, log D of the compound; type: physicochemical; settings: octanol/water
[7] = Metabolic stability in human liver microsomes; type: ADME, Microsome
[8] = Metabolic stability in human hepatocytes; type: ADME, cell-based, Liver, Hepatocyte
[9] = Permeability across human Caco-2 cells; type: ADME, cell-based; settings: read-out: permeability
Mus musculus [10] = assay: Inhibition of MEK-mediated ERK phosphorylation in mouse C26 cells xenografted mouse at 100 mg/kg, po after 1 day; type: functional; settings: C26, 24 h
[11] = Antitumor activity in mouse C26 cells xenografted mouse assessed as 100% reduction in tumor mass at 75 mg/kg/treatment, po dosed thrice a day after 14 days; type: functional; set-up: scale not given: the % may be the effect or the level left
[12] = Antitumor activity in mouse C26 cells xenografted mouse assessed as 100% reduction in tumor mass at 300 mg/kg/treatment, po dosed thrice a day after 14 days; type: functional; set-up: scale not given: the % may be the effect or the level left
[13] = Antitumor activity in mouse C26 cells xenografted mouse assessed as 50% reduction in tumor mass at 75 mg/kg/treatment, po dosed thrice a day after 14 days; type: functional; set-up: scale not given: the % may be the effect or the level left
[14] = Antitumor activity in mouse C26 cells xenografted mouse assessed as 50% reduction in tumor mass at 300 mg/kg/treatment, po dosed thrice a day after 14 days; type: functional; set-up: scale not given: the % may be the effect or the level left
[15] = Antitumor activity in mouse C26 cells xenografted mouse assessed as tumor growth delay at 75 mg/kg/treatment, po dosed thrice a day after 14 days relative to control; type: functional
[16] = Antitumor activity in mouse C26 cells xenografted mouse assessed as tumor growth delay at 300 mg/kg/treatment, po dosed thrice a day after 14 days relative to control; type: functional
[17] = Antitumor activity in mouse C26 cells xenografted mouse assessed as tumor growth delay at 1.6 mg/kg/treatment, po qd after 14 days relative to control; type: functional
[18] = Antitumor activity in mouse C26 cells xenografted mouse assessed as tumor growth delay at 25 mg/kg/treatment, po qd after 14 days relative to control; type: functional
Mus musculus [19] = assay: Inhibition of MEK-mediated ERK phosphorylation in mouse C26 cells xenografted mouse at 50 mg/kg, po after 1 day; type: functional; settings: C26, 24 h
Mus musculus [20] = assay: Inhibition of MEK-mediated ERK phosphorylation in mouse C26 cells xenografted mouse at 12.5 mg/kg, po after 1 day; type: functional; settings: C26, 24 h
[21] = Antitumor activity in mouse C26 cells xenografted mouse assessed as 100% reduction in tumor mass at 1.6 mg/kg/treatment, po qd after 14 days; type: functional; set-up: scale not given: the % may be the effect or the level left
[22] = Antitumor activity in mouse C26 cells xenografted mouse assessed as 100% reduction in tumor mass at 25 mg/kg/treatment, po qd after 14 days; type: functional; set-up: scale not given: the % may be the effect or the level left
[23] = Antitumor activity in mouse C26 cells xenografted mouse assessed as 50% reduction in tumor mass at 1.6 mg/kg/treatment, po qd after 14 days; type: functional; set-up: scale not given: the % may be the effect or the level left
[24] = Antitumor activity in mouse C26 cells xenografted mouse assessed as 50% reduction in tumor mass at 25 mg/kg/treatment, po qd after 14 days; type: functional; set-up: scale not given: the % may be the effect or the level left
[25] = Toxicity in mouse assessed as maximum tolerated dose; type: organism-based; settings: in vivo
[26] = Antitumor activity in mouse C26 cells xenografted mouse assessed as minimal effective dose; type: functional; settings: read-out: MED

SMILES | IC50 [1] [nM] | IC50 [2] [nM] | IC50 [3] [nM] | other results
O=C(O)c1ccccc1Nc1cccc(I)c1 | > 10000 |  |  | 
Cc1cc(I)ccc1Nc1cc(F)ccc1C(=O)O | 15 |  |  | 
O=C(NOCCO)c1ccc(F)c(F)c1Nc1ccc(I)cc1Cl |  |  |  | IC50 [4]: 3.5 nM; solubility [5]: < 1 µg/mL
Cc1cc(I)ccc1Nc1c(C(=O)NOCC2CC2)ccc(F)c1F | 7 | 6.48 | 172 | 
Cc1cc(I)ccc1Nc1ccc(F)cc1C(=O)O | 166 |  |  | 
Cc1cc(I)ccc1Nc1cc(Cl)ccc1C(=O)O | 554 |  |  | 
Cc1cc(I)ccc1Nc1ccccc1C(=O)O | 390 |  |  | 
O=C(O)c1ccccc1Nc1ccccc1I | > 10000 |  |  | 
O=C(NOC[C@@H](O)CO)c1ccc(F)c(F)c1Nc1ccc(I)cc1F |  |  |  | solubility [5]: 255 µg/mL (≈ 529 µM)
O=C(NOCC1CC1)c1ccc(F)c(F)c1Nc1ccc(I)cc1F |  |  |  | IC50 [4]: 1 nM; solubility [5]: < 1 µg/mL
Cc1cc(I)ccc1Nc1c(C(=O)O)cc(F)c(F)c1F | 6.8 |  |  | 
O=C(NOCC(O)CO)c1ccc(F)c(F)c1Nc1ccc(I)cc1Cl (racemic) |  |  |  | IC50 [4]: 19 nM
O=C(NOCC(O)CO)c1ccc(F)c(F)c1Nc1ccc(I)cc1F (racemic) |  |  |  | solubility [5]: 147 µg/mL (≈ 305 µM)
O=C(NOC[C@H](O)CO)c1ccc(F)c(F)c1Nc1ccc(I)cc1F [MIRDAMETINIB] |  |  |  | Activity [17]: 7.7 days; Activity [18]: 15.4 days; logD [6]: 4.6; solubility [5]: 190 µg/mL (≈ 394 µM); half-life [7]: > 1.67 h; half-life [8]: 6.17 h; Papp [9]: 72.7 ×10⁻⁶ cm/s; inhibition in vivo at 50 mg/kg (Mus musculus [19]): 84%; inhibition in vivo at 12.5 mg/kg (Mus musculus [20]): 59%; Activity [21]: 20%; Activity [22]: 70%; Activity [23]: 0%; Activity [24]: 30%; MTD [25]: 25 mg/kg; minimal effective dose [26]: 1.6 mg/kg

The next lines start with results.

IC50 [1] [nM] | IC50 [2] [nM] | IC50 [3] [nM] | SMILES | other results
20 | 4.18 | 47 | CCONC(=O)c1ccc(F)c(F)c1Nc1ccc(I)cc1C | 
26 | 11.8 | 50 | CONC(=O)c1ccc(F)cc1Nc1ccc(I)cc1C | 
7.8 | 26.4 | 113 | Cc1cc(I)ccc1Nc1c(C(=O)NOCC2CC2)cc(Br)c(F)c1F | 
23 | 119 | 661 | Cc1cc(I)ccc1Nc1c(C(=O)NOCC2CCCC2)cc(Br)c(F)c1F | 
48 | 1140 | 1780 | Cc1cc(I)ccc1Nc1c(C(=O)NOCC2CCCCC2)cc(Br)c(F)c1F | 
18 | 4.42 | 136 | CCCONC(=O)c1ccc(F)c(F)c1Nc1ccc(I)cc1C | 
35 | 8.18 | 232 | Cc1cc(I)ccc1Nc1c(C(=O)NOC(C)C)ccc(F)c1F | 
27 | 23.5 | 257 | Cc1cc(I)ccc1Nc1cc(F)ccc1C(=O)NOCC1CC1 | 
13 | 54.9 | 84.6 | O=C(NOCC1CC1)c1ccc(F)cc1Nc1ccc(I)cc1Cl | 
5.8 |  |  | Cc1cc(I)ccc1Nc1c(C(=O)O)ccc(F)c1F | 
3050 |  |  | O=C(O)c1ccccc1Nc1ccc(I)cc1 | 
2.8 | 1.59 | 645 | O=C(NO)c1ccc(F)cc1Nc1ccc(I)cc1Cl | 
10 | 75.8 | 326 | Cc1cc(I)ccc1Nc1c(C(=O)NOCC2CCC2)cc(Br)c(F)c1F | 
7.96 | 3.55 | 624 | Cc1cc(I)ccc1Nc1cc(F)ccc1C(=O)NO | 
518 |  |  | Cc1cc(I)ccc1Nc1cccc(F)c1C(=O)O | 
2.3 | 2.45 | 35.4 | O=C(NOCC1CC1)c1ccc(F)c(F)c1Nc1ccc(I)cc1Cl [CI-1040] | logD [6]: > 5; IC50 [4]: 35 nM; half-life [7]: 0.192 h; half-life [8]: 1.67 h; Papp [9]: 16.2 ×10⁻⁶ cm/s; inhibition in vivo at 100 mg/kg (Mus musculus [10]): 14%; Activity [11]: 10%; Activity [12]: 70%; Activity [13]: 20%; Activity [14]: 30%; Activity [15]: 10.8 days; Activity [16]: 12.7 days
